Experiments:
[1] = target: T1, Thromboxane-A synthase (Rattus norvegicus) (UniProt P49430); experiment: Inhibition of rat thromboxane A2 synthase evaluated as percent inhibition of thromboxane B2 formation after 24 hr of administration at 10 mg/kg.; format: functional, organism-based; design: dose 10 mg/kg
T1 sequence (whole entry): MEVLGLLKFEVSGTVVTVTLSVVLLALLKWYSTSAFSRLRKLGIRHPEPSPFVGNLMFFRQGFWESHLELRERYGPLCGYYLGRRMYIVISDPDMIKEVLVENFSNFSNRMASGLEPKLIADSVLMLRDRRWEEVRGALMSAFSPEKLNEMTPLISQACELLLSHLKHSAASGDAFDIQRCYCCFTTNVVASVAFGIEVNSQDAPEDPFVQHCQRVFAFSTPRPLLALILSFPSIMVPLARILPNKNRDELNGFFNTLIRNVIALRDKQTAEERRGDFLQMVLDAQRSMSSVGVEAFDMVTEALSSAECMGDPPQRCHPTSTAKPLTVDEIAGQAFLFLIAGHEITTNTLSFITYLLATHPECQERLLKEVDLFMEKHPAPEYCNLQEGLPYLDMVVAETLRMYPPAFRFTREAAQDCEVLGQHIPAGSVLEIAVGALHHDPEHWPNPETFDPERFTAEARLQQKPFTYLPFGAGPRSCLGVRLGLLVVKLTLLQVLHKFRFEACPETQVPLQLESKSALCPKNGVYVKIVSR

[2] = target: T2, Polyunsaturated fatty acid 5-lipoxygenase (Rattus norvegicus, UniProt P12527)
T2 sequence (P12527 whole entry): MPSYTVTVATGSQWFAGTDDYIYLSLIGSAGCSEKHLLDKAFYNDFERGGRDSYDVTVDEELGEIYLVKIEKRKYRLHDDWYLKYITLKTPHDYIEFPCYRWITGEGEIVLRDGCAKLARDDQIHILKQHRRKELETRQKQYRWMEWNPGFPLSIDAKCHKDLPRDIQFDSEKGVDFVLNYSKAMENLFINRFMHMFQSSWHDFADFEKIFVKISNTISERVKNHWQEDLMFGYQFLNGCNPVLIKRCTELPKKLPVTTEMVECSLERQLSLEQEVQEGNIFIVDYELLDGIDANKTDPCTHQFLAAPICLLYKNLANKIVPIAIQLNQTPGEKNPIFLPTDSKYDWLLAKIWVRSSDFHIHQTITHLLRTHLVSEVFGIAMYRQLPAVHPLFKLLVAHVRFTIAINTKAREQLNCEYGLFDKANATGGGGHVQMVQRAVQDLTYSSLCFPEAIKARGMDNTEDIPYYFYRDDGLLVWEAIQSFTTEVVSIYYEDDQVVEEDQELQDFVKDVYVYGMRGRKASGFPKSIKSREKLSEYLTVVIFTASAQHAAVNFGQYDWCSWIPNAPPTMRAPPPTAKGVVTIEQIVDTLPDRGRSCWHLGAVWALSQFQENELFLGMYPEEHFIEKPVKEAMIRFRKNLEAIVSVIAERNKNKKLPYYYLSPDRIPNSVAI

[3] = physchem; details: octanol/water
Description: Partition coefficient (logP)

[4] = test system: Rattus norvegicus; experiment: Protective effect was evaluated by measuring the urinary albumin by peroral administering 10 mg/kg per day for four weeks in 8 rats; format: functional, Urine; details: route oral
[5] = test system: Rattus norvegicus; experiment: Protective effect was evaluated by measuring the urinary total protein by peroral administering 10 mg/kg per day for four weeks in 8 rats; format: functional, Urine; details: route oral
[6] = test system: Rattus norvegicus; experiment: Protective effect was evaluated by measuring the urinary albumin by peroral administering 100 mg/kg per day for four weeks in adriamycin induced proteinuria 7 rats for four weeks.; format: functional, Urine; details: route oral
[7] = test system: Rattus norvegicus; experiment: Protective effect was evaluated by measuring the urinary total protein by peroral administering 100 mg/kg per day for four weeks in adriamycin induced proteinuria in 7 rats for four weeks.; format: functional, Urine; details: route oral
[8] = species: Equus caballus; experiment: The concentration required to reduce by 50% the amount of LTB4 formed by RBL-1 cells; format: functional, organism-based
[9] = test system: Rattus norvegicus; experiment: Compound was evaluated […] for percent inhibition of lipid peroxidation in rat brain homogenates at 10e-6 M; format: functional
[10] = target: T3, Thromboxane-A synthase (Homo sapiens) (UniProt P24557); experiment: Inhibitory activity of compound against thromboxane A2 synthase evaluated as percent inhibition of thromboxane B2 formation after 24 hr of administration of 10 mg/kg of compound in rat; format: functional, organism-based; design: dose 10 mg/kg
T3 sequence (whole entry): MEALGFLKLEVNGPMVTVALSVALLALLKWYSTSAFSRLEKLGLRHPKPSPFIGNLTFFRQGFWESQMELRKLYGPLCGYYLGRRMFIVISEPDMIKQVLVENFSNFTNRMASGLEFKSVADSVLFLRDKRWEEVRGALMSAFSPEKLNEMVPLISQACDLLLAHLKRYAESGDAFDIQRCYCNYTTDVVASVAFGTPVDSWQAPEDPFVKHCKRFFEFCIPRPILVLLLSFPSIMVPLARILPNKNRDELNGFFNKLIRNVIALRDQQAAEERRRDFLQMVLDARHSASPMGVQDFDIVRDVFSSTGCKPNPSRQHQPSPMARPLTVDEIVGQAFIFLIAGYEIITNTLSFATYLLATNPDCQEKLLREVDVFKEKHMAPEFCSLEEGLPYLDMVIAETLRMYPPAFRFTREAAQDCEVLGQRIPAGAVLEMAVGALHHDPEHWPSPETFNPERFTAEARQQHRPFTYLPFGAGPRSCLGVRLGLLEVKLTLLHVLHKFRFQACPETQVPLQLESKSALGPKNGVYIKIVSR

[11] = target: T3, Thromboxane-A synthase (Homo sapiens); experiment: Inhibitory activity of compound against thromboxane A2 synthase evaluated as percent inhibition of thromboxane B2 formed by incubating PGH-2 with horse platelet microsomes; format: functional; details: Equus caballus; target entry is the homologue from another species; concentration not given here
[12] = test system: RBL-1; experiment: cells; details: Rattus norvegicus
[13] = test system: Rattus norvegicus; experiment: Protective effect was evaluated by measuring the urinary total protein by peroral administering 100 mg/kg per day for four weeks in 7 rats for four weeks.; format: functional, Urine; details: route oral

SMILES | inhibition [1] [%] | IC50 [2] [nM] | logP [3] | further results
CC1=C(C)C(=O)C(C(c2cccnc2)c2cccc(/C=C(\C)C(=O)O)c2)=C(C)C1=O (centres undefined) | 19 | 100000 | 2.08 | –
CC1=C(C)C(=O)C(Cc2cccnc2)=C(C)C1=O | 86 | 62 | 2.55 | Albumin [4]: 39 mg 100g-1 24hr-1; Total protein [5]: 60 mg 100g-1 24hr-1
CC1=C(C)C(=O)C(C(CCCCO)c2cccnc2)=C(C)C1=O (centres undefined) | 40 | 100 | 3.19 | –
CC1=C(C)C(=O)C(CCCCC#CCCCC#CCO)=C(C)C1=O [DOCEBENONE] | – | 90 | – | Albumin [6]: 49 mg 100g-1 24hr-1; Total protein [7]: 95 mg 100g-1 24hr-1
COC1=C(OC)C(=O)C(Cc2cccnc2)=C(C)C1=O | 74 | – | 0.61 | –
CC1=C(C)C(=O)C(C(CCCC(=O)O)c2cccnc2)=C(C)C1=O (centres undefined) | – | – | 0.35 | IC50 [8]: 10000 nM; Inhibition [9]: 37%
CC(=O)OCCCCC(C1=C(C)C(=O)C(C)=C(C)C1=O)c1cccnc1 (centres undefined) | – | 250 | 4.08 | inhibition [10]: 37%
CC1=C(CCC(=O)O)C(=O)C(C)=C(Cc2cccnc2)C1=O | 86 | 5000 | -0.65 | –
CC1=C(Cc2cccnc2)C(=O)c2ccccc2C1=O | 92 | 82 | 2.77 | –
CC1=C(C)C(=O)C(/C(=C/CCCCC(=O)O)c2cccnc2)=C(C)C1=O | 91 | 7200 | 1.05 | –
CC1=C(C)C(=O)C(C(C)c2cccnc2)=C(C)C1=O (centres undefined) | 90 | 9500 | 2.85 | inhibition [11]: 89%
CCCCCCC(C1=C(C)C(=O)C(C)=C(C)C1=O)c1cccnc1 (centres undefined) | 70 | 73 | 5.35 | –
CCCCCCCCCCCCCCCCCCOC1=C(O)[C@@H](C(O)CO)OC1=O (some centres undefined) | – | – | – | Albumin [6]: 70 mg 100g-1 24hr-1; Total protein [7]: 122 mg 100g-1 24hr-1
CC1=C(C)C(=O)C(C(CCCCCCC(=O)O)c2cccnc2)=C(C)C1=O (centres undefined) | 97 | 7000 | 1.85 | –
CCCCC/C=C(\C1=C(C)C(=O)C(C)=C(C)C1=O)c1cccnc1 | – | – | 5.05 | IC50 [8]: 220 nM
CCCCC(C1=C(C)C(=O)C(C)=C(C)C1=O)c1cccnc1 (centres undefined) | 97 | 830 | 4.35 | –
CCOC(=O)/C=C/C1=C(C)C(=O)C(Cc2cccnc2)=C(C)C1=O | 80 | 8 | 3.28 | –
CC1=C(C)C(=O)C(C(CCCCCO)c2cccnc2)=C(C)C1=O (centres undefined) | – | 100 | 3.69 | inhibition [10]: 72%
CC(=O)OCCCCCC(C1=C(C)C(=O)C(C)=C(C)C1=O)c1cccnc1 (centres undefined) | – | 87 | 4.58 | inhibition [10]: 84%
CCCCC/C=C(/C1=C(C)C(=O)C(C)=C(C)C1=O)c1cccnc1 | – | – | 5.05 | IC50 [12]: 260 nM
O=C(O)CCCC/C=C(\c1ccccc1)c1cccnc1 [(E)-ISBOGREL] | 90 | – | – | Albumin [6]: 75 mg 100g-1 24hr-1; Total protein [13]: 131 mg 100g-1 24hr-1
CC1=C(C)C(=O)C(C(CCCCCC(=O)O)c2cccnc2)=C(C)C1=O (centres undefined) | 90 | 9300 | 1.35 | –
CC1=C(C)C(=O)C(C(c2cccnc2)c2cccc(CCC(=O)O)c2)=C(C)C1=O (centres undefined) | – | 100000 | 2.08 | –
CC1=C(/C=C(\C)C(=O)O)C(=O)C(C)=C(Cc2cccnc2)C1=O | 73 | 8700 | -0.65 | –
CC1=C(C)C(=O)C(C(CCCCC(=O)O)c2cccnc2)=C(C)C1=O (centres undefined) | 64 | 60000 | 0.85 | –
CCC(C1=C(C)C(=O)C(C)=C(C)C1=O)c1cccnc1 (centres undefined) | 75 | 660 | 3.35 | –
CC1=C(/C=C/C(=O)O)C(=O)C(C)=C(Cc2cccnc2)C1=O | 90 | 8800 | -0.95 | –

Source: ChEMBL document CHEMBL1125730, “Dual inhibitors of thromboxane A2 synthase and 5-lipoxygenase with scavenging activity of active oxygen species. Synthesis of a novel series of (3-pyridylmethyl)benzoquinone derivatives” (J Med Chem, 1991)
